The results in this text go back to EP4436582B1, “2-METHOXYESTRADIOL FOR USE IN THE TREATMENT OF MASTOCYTOSIS” (Gdanski Uniwersytet Medyczny, priority 2021, dated 2023).

In general, viability refers to a read-out of living cells in per cent, often relative to untreated cells.

For series [1], the system named is HMC 1.1 line (containing the p.V560G mutation). Description: cells. To be noted: Homo sapiens, 48 h.
Description: (§1) Used in the research were four mastocyte cell lines: • HMC-1.1 containing the pV560G KIT gene mutation; • HMC-1.2 containing the pG560V and pD816V KIT gene mutations, • ROSA KIT D816V containing the pD816V KIT mutation; • ROSA KIT WT - line containing no KIT mutation [21-23].
(§2) The culture was grown in a cell incubator at the temperature of 37 °C and at 5% CO2 content, in sterile conditions in a chamber with laminar flow of sterile air. Used was Iscove's Modified Dulbecco's Medium (Merck Millipore) supplemented with 1.2 mM of α-thioglycerol, 50 mL of Foetal Bovine Serum (ATCC), and 5 mL of antibiotics (PEN./STREP. 100x, Merck Millipore)
(§3) The cells were grown for 48 hours on a 96-well plate at the concentrations 5 ×10^4 cells per well for the HMC 1.1. and HMC 1.2 lines, respectively, and at the concentration of 7.5 ×10^4 cells per well for the ROSA KIT D816V and ROSA KIT WT lines.
(§4) Then, the working 2-ME solution was diluted in 100 µL of DMSO so as to obtain the final solution concentrations of 1, 5, and 10 in 100 µL of DMSO, respectively.
(§5) The control were cells treated with the corresponding amounts of DMSO with no 2-ME added.
(§6) Following 48 hours into incubation, each well was added 50 µL of the XTT solution (Roche Diagnostics GmbH, Mannheim, Germany) prepared in accordance with the manufacturer's instructions. After 4 hours of cell incubation with XTT the level of absorbance was read using the Cytation 3 Imaging Reader (BioTek, USA) at the wavelength of 560 nm.
Series [2] has the same test system.
Description: as §1, §2, §3, §4, §5, §6
For series [3], the system named is ROSA KIT WT line (without KIT gene mutation). Description: cells. As to conditions: 48 h, read-out: inhibited the cell growth by.
Description: as §1
(§7) The culture was grown in a cell incubator at the temperature of 37 °C and at 5% CO2 content. […] Used to grow the culture was Iscove's Modified Dulbecco's Medium (Merck Millipore) added with 50 mL of Foetal Bovine Serum (ATCC), and 5 mL of antibiotics (PEN./STREP. 100x, Merck Millipore), while the medium used for the ROSA KIT WT line was additionally supplemented with bone marrow stem cell growth factor rhSCF (R&D Systems, Minneapolis, USA) in the final concentration of 80 ng/ml.
as §3, §4, §5, §6
Series [4] shares this test system.
Description: as §1, §7, §3, §4, §5, §6

For `COc1cc2c(cc1O)CC[C@@H]1[C@@H]2CC[C@]2(C)[C@@H](O)CC[C@@H]12` [2-ME, 2-methoxyestradiol], in series [1] (read-out: cell viability, HMC 1.1 line, 5 µM, 48 hours, remaining viability vs DMSO control), the viability at 5 µM amounted to 63%. For the same compound, in series [1] (read-out: cell viability, HMC 1.1 line, 10 µM, 48 hours, remaining viability vs DMSO control), the viability at 10 µM was 67%. The inhibition at 1 µM in series [1] (read-out: reduced proliferation of cells by) is 29%. Also, the viability at 1 µM in series [1] (read-out: viability of the cells, HMC 1.1 line, 1 µM, 48 hours, remaining viability vs DMSO control) was found to be 71%. In series [2], the “cytotoxicity to neoplastic MCs” value is “selectively cytotoxic”. Besides, in series [3], the inhibition at 1 µM is 5%, the inhibition at 5 µM worked out at 12% and the inhibition at 10 µM was 14%. The “cytotoxicity to regular MCs” value in series [4] is listed as “did not demonstrate any such activity”.
